Measurements from ChEMBL document CHEMBL1201862, “PubChem BioAssay data set” (2004).
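Dose response: 5 concentrations. Exposure: 48 h. Format: 96-well plates. Endpoint: linear interpolation; highest concentration if not reached. Here, GI50 denotes the concentration required for 50% inhibition of growth.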 Active and inactive are the calls of the source. Cut-off read from the data, not from the text of the source: active = GI50 up to about 1.1 µM and inactive = higher.

Experiments:
Experiment in all cases: NCI anticancer screen, dose series, 48 h
[1] = tested on: DLD-1
[2] = tested on: UO-31
[3] = tested on: HOP-18
[4] = tested on: U-251
[5] = tested on: K562
[6] = tested on: RPMI-8226
[7] = tested on: M14
[8] = tested on: LOX IMVI
[9] = tested on: NCI-H460
[10] = tested on: ACHN
[11] = tested on: HOP-62
[12] = tested on: SF-268
[13] = tested on: HCC 2998
[14] = tested on: UACC-62
[15] = tested on: XF498
[16] = tested on: RXF 393
[17] = tested on: SNB-19
[18] = tested on: 786-0
[19] = tested on: HT-29
[20] = tested on: NCI-H226
[21] = tested on: A498
[22] = tested on: SNB-78
[23] = tested on: SNB-75
[24] = tested on: SK-MEL-2
[25] = tested on: TK-10
[26] = tested on: SR
[27] = tested on: LXFL 529
[28] = tested on: MOLT-4
[29] = tested on: SF-539
[30] = tested on: EKVX
[31] = tested on: SF-295
[32] = tested on: NCI-H522
[33] = tested on: OVCAR-8
[34] = tested on: HOP-92
[35] = tested on: IGROV-1
[36] = tested on: UACC-257
[37] = tested on: SW-620
[38] = tested on: SK-OV-3
[39] = tested on: KM-20L2
[40] = tested on: KM12
[41] = tested on: NCI-H23
[42] = tested on: HCT-15
[43] = tested on: OVCAR-4
[44] = tested on: SN12C
[45] = tested on: CCRF-CEM
[46] = tested on: SK-MEL-28
[47] = tested on: HCT-116
[48] = tested on: DMS-273
[49] = tested on: OVCAR-5
[50] = tested on: Malme-3M
[51] = tested on: HL-60
[52] = tested on: DMS-114
[53] = tested on: OVCAR-3
[54] = tested on: SK-MEL-5
[55] = tested on: COLO 205
[56] = tested on: CAKI-1
[57] = tested on: A549
[58] = tested on: M19-MEL

Measured: GI50

CCCCCCCCCCCCOC(=S)NC
17.8 µM: [42]
inactive: [1] 17.1 µM | [2] 19 µM | [3] 19 µM | [4] 18.3 µM | [5] 19.6 µM | [6] 16.9 µM | [7] 19.7 µM | [8] 14.1 µM | [9] 18.5 µM | [10] 20 µM | [11] 22.2 µM | [12] 20.2 µM | [13] 17.5 µM | [14] 17.1 µM | [15] 20 µM | [16] 16.6 µM | [17] 33.4 µM | [18] 19 µM | [19] 18.6 µM | [20] 4.25 µM | [21] 18.1 µM | [22] 27.8 µM | [23] 29.9 µM | [24] 14.6 µM | [25] 12.8 µM | [26] 14.1 µM | [27] 17 µM | [28] 13.1 µM | [29] 18.2 µM | [30] 20.4 µM | [31] 25.9 µM | [32] 27.5 µM | [33] 18.6 µM | [34] 15.5 µM | [35] 18 µM | [36] 20.3 µM | [37] 18.3 µM | [38] 27 µM | [39] 19.4 µM | [40] 14.3 µM | [41] 20.4 µM | [43] 24.1 µM | [44] 17.7 µM | [45] 33.4 µM | [46] 20 µM | [47] 16.9 µM | [48] 19.5 µM | [49] 12.6 µM | [50] 21.6 µM | [51] 27.6 µM | [52] 20.8 µM

COc1ccc2c(c1)CCN1C3=C(CCC3)C(=O)C[C@@H]21
inactive: [2] 43.6 µM | [3] > 100 µM | [53] > 100 µM | [4] > 100 µM | [5] > 100 µM | [6] > 100 µM | [7] > 100 µM | [54] > 100 µM | [8] > 100 µM | [55] > 100 µM | [9] > 100 µM | [10] > 100 µM | [11] > 100 µM | [12] > 100 µM | [13] > 100 µM | [14] > 100 µM | [15] 15.9 µM | [16] > 100 µM | [17] > 100 µM | [18] > 100 µM | [19] > 100 µM | [20] > 100 µM | [21] 62.2 µM | [56] > 100 µM | [22] > 100 µM | [23] 44.9 µM | [24] > 100 µM | [25] 44.7 µM | [26] 31.1 µM | [27] > 100 µM | [28] > 100 µM | [29] > 100 µM | [30] > 100 µM | [31] > 100 µM | [32] > 100 µM | [33] > 100 µM | [34] > 100 µM | [35] > 100 µM | [36] > 100 µM | [37] > 100 µM | [38] > 100 µM | [57] > 100 µM | [39] > 100 µM | [40] > 100 µM | [41] > 100 µM | [43] > 100 µM | [44] > 100 µM | [45] > 100 µM | [46] > 100 µM | [58] > 100 µM | [47] > 100 µM | [48] > 100 µM | [49] 89.9 µM | [50] > 100 µM | [51] 23.2 µM | [52] 81.7 µM
> 100 µM: [42]

O=C(O)c1ccccc1NS(=O)(=O)c1ccc(Cl)cc1
inactive: [1] > 100 µM | [2] > 100 µM | [3] > 100 µM | [4] > 100 µM | [5] > 100 µM | [6] > 100 µM | [7] > 100 µM | [54] > 100 µM | [8] > 100 µM | [55] > 100 µM | [9] > 100 µM | [10] > 100 µM | [11] > 100 µM | [12] > 100 µM | [13] > 100 µM | [14] > 100 µM | [15] > 100 µM | [16] > 100 µM | [17] > 100 µM | [18] > 100 µM | [19] > 100 µM | [20] > 100 µM | [56] > 100 µM | [22] > 100 µM | [23] > 100 µM | [24] > 100 µM | [25] > 100 µM | [27] > 100 µM | [28] > 100 µM | [29] > 100 µM | [30] > 100 µM | [32] 54 µM | [33] > 100 µM | [34] 19 µM | [35] > 100 µM | [36] > 100 µM | [37] > 100 µM | [38] > 100 µM | [57] > 100 µM | [39] > 100 µM | [41] > 100 µM | [43] > 100 µM | [44] > 100 µM | [45] > 100 µM | [46] > 100 µM | [58] > 100 µM | [47] > 100 µM | [48] > 100 µM | [49] > 100 µM | [50] > 100 µM | [52] > 100 µM
> 100 µM: [42]
